Assay results published in patent US6627657B1 (priority 2000, dated 2003).
Like-named read-outs stand apart in the source and are kept apart here.

System: Zygosaccharomyces bailii ATCC 60483
Type: cell-based
Conditions: 30 seconds
Protocol: The rate at which a composition of the invention killed a test organism was measured by inoculating use solutions with a test organism and then quantifying survivors after various exposure times. Ninety-nine mL of each use solution was transferred to a 250 mL Erlenmeyer flask and allowed to equilibrate to test temperature. The liquid in the flask was swirled vigorously in a rapid circular motion and 1 mL of a suspension of the test organism was added.
After the exposure time, 1 mL quantities of the use solution/test organism mixture were transferred to 9 mL of the use-solution neutralizer. One mL quantities of the neutralizer were pour-plated using the plating medium. Serial 10-fold or 100-fold dilutions of the neutralizer solution were also plated. Plates were incubated and then surviving microorganisms were counted. The Log10 reduction of the test organism due to the use solution was determined by comparing reduction to an untreated control set (referred to as the Inoculum Numbers).
The test method was carried out as described in Example 5.
To determine the antifungal activity of hydrogen peroxide and peroxyacetic independently and in combination with a quaternary ammonium compound, the following experimental perimeters were used. The test organism studied was Zygosaccharomyces bailii ATCC 60483.
The test temperature used was 25° C., and the exposure time was 30 seconds. The use-solution neutralizer used was 1% sodium thiosulfate/1% peptone/0.025% catalase (for POAA, H2O2), Chambers neutralizer (for quaternary ammonium compound), and 1:1 mixture of the above (for POAA/H2O2/quaternary ammonium compound).
The microorganisms were plated on Sabourad dextrose agar and incubated for 4 days at 26° C.

| SMILES | Log Reduction (532 ppm, pH 3, 25° C.) | Survivors (532 ppm, pH 3, 25° C.) | Log Reduction (532 ppm, pH 5, 25° C.) | Survivors (532 ppm, pH 5, 25° C.) | Log Reduction (532 ppm, pH 7, 25° C.) | Survivors (532 ppm, pH 7, 25° C.) | Log Reduction (532 ppm, pH 9, 25° C.) | Survivors (532 ppm, pH 9, 25° C.) | Log Reduction (532 ppm, pH 11, 25° C.) | Survivors (532 ppm, pH 11, 25° C.) | Log Reduction (20 ppm, pH 3, 25° C.) | Survivors (20 ppm, pH 3, 25° C.) | Log Reduction (20 ppm, pH 5, 25° C.) | Survivors (20 ppm, pH 5, 25° C.) | Log Reduction (20 ppm, pH 7, 25° C.) | Survivors (20 ppm, pH 7, 25° C.) | Log Reduction (20 ppm, pH 9, 25° C.) | Survivors (20 ppm, pH 9, 25° C.) | Log Reduction (20 ppm, pH 11, 25° C.) | Survivors (20 ppm, pH 11, 25° C.) |
| --- | --- | --- | --- | --- | --- | --- | --- | --- | --- | --- | --- | --- | --- | --- | --- | --- | --- | --- | --- | --- |
| OO [Hydrogen Peroxide] | 0.00 | 7.5 × 10^6 cfu/ml | 0.00 | 9.9 × 10^6 cfu/ml | 0.00 | 7.9 × 10^6 cfu/ml | 0.04 | 6.8 × 10^6 cfu/ml | 0.06 | 6.5 × 10^6 cfu/ml | – | – | – | – | – | – | – | – | – | – |
| CCCCCCCCCC[N+](C)(C)CCCCCCCCCC.[Cl-] [Didecyl Dimethyl Ammonium Chloride] | – | – | – | – | – | – | – | – | – | – | 0.00 | 9.4 × 10^6 cfu/ml | 0.02 | 7.1 × 10^6 cfu/ml | 0.05 | 6.6 × 10^6 cfu/ml | 0.18 | 4.9 × 10^6 cfu/ml | 1.69 | 1.5 × 10^5 cfu/ml |
